According to US5298397A, “Method of assaying d-vanillylmandelic acid” (Yamasa Shoyu Kabushiki Kaisha, priority 1989, dated 1994):

Tests used:
[1] = test system: anti-D-VMA antibody; experiment: Cross-reactivity of anti-D-VMA monoclonal antibodies with acidic catecholamine metabolites (competitive enzyme immunoassay); assay type: binding, mouse; details: reactivity with D-VMA defined as 100%; for Antibody Reactivity (% by weight): from concentration ratios at 50% inhibition on standard curves
Experimental: Three days after the final booster, spleen cells of the mouse were enucleated and washed with Eagle's minimum essential medium (MEM). […] The spleen cells and P3 U1 were mixed at 10:1 and the mixture was centrifuged. To the pellets obtained was gradually added 1 ml of an MEM solution containing 50% polyethylene glycol (PEG) 1000 to cause cell fusion. […] 0.1 ml of the suspension was apportioned to each well of a 96-well microplate. One day thereafter, 0.1 ml of HAT medium was added. […] Into each well of the 96-well microplate previously coated with HSA and the 96-well microplate coated with D-VMA-HSA (10 μg/ml) was added […] of the above diluted culture supernatant. […] After one hour at room temperature, by the use of the same reagent as in the case of the ELISA method as described above except for using O-phenylenediamine as the chromogenic reagent, enzyme immunoassay was practiced according to the competitive reaction method.

[2] = test system: peroxidase-labeled anti-D-VMA antibody; experiment: Competitive enzyme immunoassay of D-VMA or L-VMA solutions with peroxidase-labeled anti-D-VMA antibody on solid-phase antigen plate; assay type: binding, mouse; details: conclusion drawn from Table 2
Experimental: A volume of 50 μl of the D-VMA solution or L-VMA solution as described above and 50 μl of the peroxidase-labeled anti-D-VMA antibody solution were added into each well, and reaction was carried out stationarily at room temperature for one hour.
After reaction, the solution in each well was discarded and each well was washed with a 0.9% aqueous sodium chloride solution.
After washing, 100 μl of a substrate solution (containing 1 mM H2 O2 and […] TMBZ) was added and left standing for 25 minutes. A volume of 100 μl of a reaction stopping solution (a 2N sulfuric acid solution) was added, and absorbance at 450 nm was measured by the use of a 96-well microplate reader MPR-A4 (produced by Toso K. K.).
After measurement, from the calibration curve prepared by the use of DL-VMA of a known concentration as a standard substance (FIG. 1), the VMA concentration corresponding to the above absorbance was determined.

Row | SMILES | Antibody Reactivity (% by weight) [1] | reactivity of the labeled antibody [2] | cross-reactivity of the antibody reagent [1]
1 | COc1cc(C(O)C(=O)O)ccc1O (racemic) [DL-VMA, vanillylmandelic acid] | 50 % by weight | – | –
2 | COc1cc(CC(=O)C(=O)O)ccc1O [Vanillylpyruvic acid] | 4 % by weight | – | –
3 | O=C(O)Cc1ccc(O)c(O)c1 [3,4-Dihydroxyphenylacetic acid (DOPAC), 3,4-Dihydroxyphenylacetic acid] | < 0.01 % by weight | – | –
4 | COc1cc([C@@H](O)C(=O)O)ccc1O [D-VMA, D-vanillylmandelic acid] | 100 % by weight | – | –
5 | CNCC(O)c1ccc(O)c(OC)c1 (stereo not shown) [Metanepherine] | < 0.01 % by weight | – | –
6 | COc1cc([C@H](O)C(=O)O)ccc1O [L-VMA] | < 1 % by weight | substantially no reactivity | ≤ 1%
7 | O=C(O)C(O)c1ccc(O)c(O)c1 (stereo not shown) [3,4-Dihydroxymandelic acid (DOMA), 3,4-Dihydroxymandelic acid] | 4 % by weight | – | –
8 | COc1cc(CC(=O)O)ccc1O [Homovanilic acid (HVA), Homovanilic acid] | < 0.01 % by weight | – | –
